Source: article PMC12305662, “Fragment-Based Development of Small Molecule Inhibitors Targeting Mycobacterium tuberculosis Cholesterol Metabolism” (Journal of Medicinal Chemistry, 2025)

Legend:
CYP125 = CYP125 (Mycobacterium tuberculosis, UniProt P9WPP1); format: binding; conditions: fragment 1 mM, P450 4-6 µM; Soret shift relative to DMSO (393 nm)
CYP142 = CYP142 (Mycobacterium tuberculosis, UniProt P9WPL5); conditions: fragment 1 mM, P450 4-6 µM; relative to DMSO (418.5 nm)
CYP124 = CYP124 (Mycobacterium tuberculosis, UniProt P9WPP3); conditions: fragment 1 mM, P450 4-6 µM; relative to DMSO (419 nm)
CYP121 = CYP121 (Mycobacterium tuberculosis, UniProt P9WPP7); conditions: fragment 1 mM, P450 4-6 µM; relative to DMSO (417 nm)
CYP126 = CYP126 (Mycobacterium tuberculosis, UniProt P9WPN9); conditions: fragment 1 mM, P450 4-6 µM; relative to DMSO (418 nm)
CYP143 = CYP143 (Mycobacterium tuberculosis, UniProt P9WPL3); conditions: fragment 1 mM, P450 4-6 µM; relative to DMSO (416 nm)
CYP144 = CYP144 (Mycobacterium tuberculosis, UniProt P9WPL1); conditions: fragment 1 mM, P450 4-6 µM; relative to DMSO (421 nm)
Chain of CYP144 (P9WPL1 whole entry, the tested form may be a part): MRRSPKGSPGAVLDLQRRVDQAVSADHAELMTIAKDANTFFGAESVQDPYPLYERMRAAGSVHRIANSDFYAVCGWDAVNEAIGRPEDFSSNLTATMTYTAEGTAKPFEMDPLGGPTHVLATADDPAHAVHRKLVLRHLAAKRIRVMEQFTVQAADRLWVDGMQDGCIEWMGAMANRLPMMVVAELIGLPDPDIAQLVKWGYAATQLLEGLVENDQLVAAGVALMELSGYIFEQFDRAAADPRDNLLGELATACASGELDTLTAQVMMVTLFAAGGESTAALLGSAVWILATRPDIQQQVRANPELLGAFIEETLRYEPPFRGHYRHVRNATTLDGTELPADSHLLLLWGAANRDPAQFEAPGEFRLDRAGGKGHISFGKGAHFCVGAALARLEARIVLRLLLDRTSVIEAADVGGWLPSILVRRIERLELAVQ

Chain of CYP142 (P9WPL5 whole entry, the tested form may be a part): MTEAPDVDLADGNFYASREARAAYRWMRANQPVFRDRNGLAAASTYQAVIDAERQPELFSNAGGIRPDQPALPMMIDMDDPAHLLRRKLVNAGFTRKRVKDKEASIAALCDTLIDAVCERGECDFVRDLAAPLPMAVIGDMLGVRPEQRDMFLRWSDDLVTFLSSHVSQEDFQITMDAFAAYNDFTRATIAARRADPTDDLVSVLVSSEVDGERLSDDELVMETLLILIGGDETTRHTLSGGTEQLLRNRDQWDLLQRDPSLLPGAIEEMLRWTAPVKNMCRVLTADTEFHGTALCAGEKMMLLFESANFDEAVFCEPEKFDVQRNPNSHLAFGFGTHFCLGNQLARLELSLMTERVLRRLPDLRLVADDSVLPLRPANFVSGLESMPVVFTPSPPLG
Chain of CYP125 (P9WPP1 whole entry, the tested form may be a part): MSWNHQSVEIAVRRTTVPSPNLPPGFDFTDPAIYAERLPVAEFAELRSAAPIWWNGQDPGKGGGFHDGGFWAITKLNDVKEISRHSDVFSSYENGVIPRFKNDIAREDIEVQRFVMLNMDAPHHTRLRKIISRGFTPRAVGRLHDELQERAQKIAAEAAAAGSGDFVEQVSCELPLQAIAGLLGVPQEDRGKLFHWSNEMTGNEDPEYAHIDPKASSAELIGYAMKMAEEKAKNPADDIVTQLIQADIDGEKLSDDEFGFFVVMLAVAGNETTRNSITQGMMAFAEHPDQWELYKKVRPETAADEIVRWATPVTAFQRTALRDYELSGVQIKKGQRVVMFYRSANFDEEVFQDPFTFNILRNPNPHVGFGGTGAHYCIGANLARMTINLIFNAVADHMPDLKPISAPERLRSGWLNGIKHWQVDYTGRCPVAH
Chain of CYP121 (P9WPP7 whole entry, the tested form may be a part): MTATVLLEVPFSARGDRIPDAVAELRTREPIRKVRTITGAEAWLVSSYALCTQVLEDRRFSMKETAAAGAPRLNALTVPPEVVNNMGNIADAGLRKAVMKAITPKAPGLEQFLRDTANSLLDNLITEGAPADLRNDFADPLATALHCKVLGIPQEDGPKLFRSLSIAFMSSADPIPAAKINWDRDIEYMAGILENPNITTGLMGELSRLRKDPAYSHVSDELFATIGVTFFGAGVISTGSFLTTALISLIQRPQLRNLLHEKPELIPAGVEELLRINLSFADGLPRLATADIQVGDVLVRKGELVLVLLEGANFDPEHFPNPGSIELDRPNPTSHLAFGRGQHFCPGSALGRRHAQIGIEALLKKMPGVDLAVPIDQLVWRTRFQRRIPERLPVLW
Chain of CYP126 (P9WPN9 whole entry, the tested form may be a part): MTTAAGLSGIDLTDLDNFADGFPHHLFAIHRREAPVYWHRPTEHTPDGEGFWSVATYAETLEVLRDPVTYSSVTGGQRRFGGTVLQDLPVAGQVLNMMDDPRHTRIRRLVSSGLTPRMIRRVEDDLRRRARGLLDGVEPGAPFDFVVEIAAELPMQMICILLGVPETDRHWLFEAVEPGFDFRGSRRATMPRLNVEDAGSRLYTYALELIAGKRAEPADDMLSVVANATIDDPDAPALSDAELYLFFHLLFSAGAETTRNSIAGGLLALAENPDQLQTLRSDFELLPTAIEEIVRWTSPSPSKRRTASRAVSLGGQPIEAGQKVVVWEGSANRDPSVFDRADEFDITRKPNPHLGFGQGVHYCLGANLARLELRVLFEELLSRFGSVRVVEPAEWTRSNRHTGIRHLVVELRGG
Chain of CYP124 (P9WPP3 whole entry, the tested form may be a part): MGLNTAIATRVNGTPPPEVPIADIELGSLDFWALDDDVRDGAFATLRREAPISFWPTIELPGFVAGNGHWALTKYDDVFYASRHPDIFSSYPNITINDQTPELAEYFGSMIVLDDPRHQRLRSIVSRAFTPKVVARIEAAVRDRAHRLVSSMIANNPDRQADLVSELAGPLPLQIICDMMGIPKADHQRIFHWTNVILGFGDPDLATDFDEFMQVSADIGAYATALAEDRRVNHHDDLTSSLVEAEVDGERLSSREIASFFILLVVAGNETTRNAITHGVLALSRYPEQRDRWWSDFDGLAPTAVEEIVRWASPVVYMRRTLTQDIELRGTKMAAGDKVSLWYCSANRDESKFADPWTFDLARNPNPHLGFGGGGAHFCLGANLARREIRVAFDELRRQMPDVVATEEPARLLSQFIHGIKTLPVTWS
Chain of CYP143 (P9WPL3 whole entry, the tested form may be a part): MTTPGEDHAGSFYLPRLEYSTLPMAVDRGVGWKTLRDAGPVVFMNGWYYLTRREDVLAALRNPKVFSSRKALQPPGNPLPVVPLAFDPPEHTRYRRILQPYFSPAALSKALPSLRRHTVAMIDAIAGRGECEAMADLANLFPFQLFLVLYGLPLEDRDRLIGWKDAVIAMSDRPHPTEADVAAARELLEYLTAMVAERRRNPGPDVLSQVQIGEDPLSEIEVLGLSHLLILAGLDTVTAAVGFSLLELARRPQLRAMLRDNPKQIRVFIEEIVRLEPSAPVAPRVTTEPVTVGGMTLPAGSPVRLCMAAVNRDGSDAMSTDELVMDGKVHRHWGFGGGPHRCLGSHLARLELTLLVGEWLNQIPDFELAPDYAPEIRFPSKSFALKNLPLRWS

| Structure (SMILES) | Δλmax (nm) CYP125, fragment screen (CYP125) [nm] | Δλmax (nm) CYP142, fragment screen (CYP142) [nm] | Δλmax (nm) CYP124, fragment screen (CYP124) [nm] | Δλmax (nm) CYP121, fragment screen (CYP121) [nm] | Δλmax (nm) CYP126, fragment screen (CYP126) [nm] | Δλmax (nm) CYP143, fragment screen (CYP143) [nm] | Δλmax (nm) CYP144, fragment screen (CYP144) [nm] |
| --- | --- | --- | --- | --- | --- | --- | --- |
| COc1ncccc1N [compound 50] | 0 | 0 | 0 | 0 | 0 | 2.5 | 0 |
| COC(=O)c1cc2ccccc2cn1 [compound 26] | 0 | 0 | 0 | 0 | 0 | 1 | 0 |
| Cc1ccc(=O)[nH]n1 [compound 7] | 0 | 0 | 0 | 0 | 0 | 0 | 0 |
| CC(C)c1cc(C(=O)O)[nH]n1 [compound 46] | 0 | 0 | 0 | 0 | 0 | -0.5 | 0 |
| Cc1cc(O)nnc1O [compound 24] | 0 | 0 | 0 | -1 | 0 | 0 | 0 |
| O=C1CCN(c2ccccc2)N1 [compound 64] | 0 | 1.5 | -1 | 0 | 0 | 1 | 0 |
| O=C(O)c1ccnnc1 [compound 1] | 0 | 0 | 0 | -1 | 0 | 0.5 | 0 |
| O=C(O)c1ccc(-c2cccnc2)cc1 [compound 53] | 0 | 0 | 0 | 0 | 0 | 1 | 0 |
| CNCc1ccc(-c2ccncc2)cc1 [compound 52] | 28.5 | 1.5 | 2 | -1 | 0 | 4 | 0 |
| Cc1n[nH]cc1Br [compound 38] | 0 | 1.5 | 0 | 0 | 0 | 0 | 0 |
| Cc1[nH]ncc1-c1ccccc1 [compound 14] | -2 | 1.5 | 3 | 0 | 0 | 0 | 0 |
| Clc1cncc(Cl)c1 [compound 19] | 0 | 0 | 0 | 0 | 0 | 0 | 0 |
| Oc1cccnc1O [compound 42] | 0 | 0 | -1 | -1 | 0 | 0.5 | 0 |
| Oc1ccccn1 [compound 44] | 0 | 0 | 0 | 0 | 0 | -0.5 | 0 |
| Brc1c[nH]cn1 [compound 77] | 0 | 3 | 0 | -1 | 0 | 0.5 | 0 |
| Clc1ncccc1Br [compound 57] | 0 | 0 | 0 | -1 | 0 | 0.5 | 0 |
| OCc1nccn1Cc1ccccc1 [compound 10] | 0 | 3 | 1 | 0 | 0 | 1 | 0 |
| O=C(O)c1cccc(O)n1 [compound 30] | 0 | 0 | 0 | 0 | 0 | 1 | 0 |
| N#Cc1ncccc1F [compound 72] | 0 | 0 | 0 | 0 | 0 | 0 | 0 |
| O=C(O)c1ccccc1-n1cccn1 [compound 22] | 0 | 0 | 0 | 0 | 0 | 0 | 0 |
| O=C(O)[C@@H]1Cc2ccccc2CN1 [compound 79] | -2 | 0 | 0 | 1 | 0 | 0 | 0 |
| OCc1ccc(Cn2cncn2)cc1 [compound 69] | 0 | 0 | 0 | 0 | 0 | 0 | 0 |
